≈ marks a conversion by molar mass, not a printed value.
tested on: SAUR 9218; test: MIC Test Method, standard agar dilution; type: cell-based; details: agar dilution, Mueller Hinton agar, incubated overnight at 35° C.; lowest concentration that inhibits visible growth; read-out: SAUR 9218 MIC
How it was run: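 MIC (μg/ml) was read as the lowest drug level without visible growth of SAUR 9218 after overnight incubation at 35 °C. Inocula of about 10^4 to 10^5 cells per spot were applied to Mueller Hinton agar containing 2-fold serial compound dilutions.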

MIC [µg/mL] | Compound
32 (≈ 99.9 µM) | Cn1nc(C(=O)Nc2ccc(C#N)cc2C(=O)O)c2ccccc21
> 128 | Cc1cc(C(=O)Nc2ccc(Br)cc2C(=O)O)c(C)o1
> 128 | COc1ccc(C(=O)Nc2ccc(C#N)cc2C(=O)O)c(OC)n1
0.015 (≈ 0.0376 µM) | CCCCCCCSc1ccc(C(=O)Nc2ccc(C#N)cc2C(=O)O)nn1
> 128 | Cc1c(S(=O)(=O)N2CC3CC2CN3Cc2ccccc2)csc1C(=O)Nc1ccc(Br)cc1C(=O)O (centres unmarked)
0.25 (≈ 0.531 µM) | CCCN(CCC)S(=O)(=O)c1ccc2onc(C(=O)Nc3ccc(C#N)cc3C(=O)O)c2c1
0.25 (≈ 0.677 µM) | CCC(CC)Sc1ccc(C(=O)Nc2ccc(C#N)cc2C(=O)O)cn1
0.25 (≈ 0.632 µM) | Cn1c(C(=O)Nc2ccc(C#N)cc2C(=O)O)cc2cccc(-c3ccccc3)c21
1 (≈ 2.9 µM) | C=CCn1c(C(=O)Nc2ccc(C#N)cc2C(=O)O)cc2ccccc21
0.5 (≈ 1.12 µM) | Cc1ccccc1-c1cc(C(=O)Nc2ccc(I)cc2C(=O)O)no1
4 (≈ 12 µM) | N#Cc1ccc(NC(=O)c2cncc(-c3ccco3)c2)c(C(=O)O)c1
128 (≈ 255 µM) | Cc1sc(C(=O)Nc2ccc(C#N)cc2C(=O)O)cc1S(=O)(=O)N1CCCC1CN1CCCC1 (centres unmarked)
> 128 | N#Cc1ccc(NC(=O)c2ccsc2)c(C(=O)O)c1
16 (≈ 31.9 µM) | N#Cc1ccc(NC(=O)c2cc(-c3ccccc3Oc3ccc(-c4ccccc4)cc3)on2)c(C(=O)O)c1
2 (≈ 3.68 µM) | Cc1sc(C(=O)Nc2ccc(Br)cc2C(=O)O)cc1S(=O)(=O)N(C)c1ccc(Cl)cc1
0.5 (≈ 1.13 µM) | N#Cc1ccc(NC(=O)c2cc3cccc(NC(=O)c4cccc(F)c4)c3[nH]2)c(C(=O)O)c1
4 (≈ 10.2 µM) | CCCCN1C(=O)c2ccc(C(=O)Nc3ccc(C#N)cc3C(=O)O)cc2C1=O
2 (≈ 4.14 µM) | Cn1c(C(=O)Nc2ccc(C#N)cc2C(=O)O)cc2cccc(OCC(O)COCC(O)CO)c21 (centres unmarked)
32 (≈ 106 µM) | N#Cc1ccc(NC(=O)c2cnc(Cl)cn2)c(C(=O)O)c1
2 (≈ 3.77 µM) | CN(c1ccc(Cl)cc1)S(=O)(=O)c1ccc(C(=O)Nc2ccc(Br)cc2C(=O)O)s1
0.125 (≈ 0.308 µM) | CCCCCOc1cccc2cc(C(=O)Nc3ccc(C#N)cc3C(=O)O)n(C)c12
0.5 (≈ 0.944 µM) | Cn1c(C(=O)Nc2ccc(C#N)cc2C(=O)O)cc2cccc(OCC(O)COCCOc3ccccc3)c21 (centres unmarked)
2 (≈ 4.05 µM) | Cc1noc(C)c1S(=O)(=O)Nc1ccc2cc(C(=O)Nc3ccc(C#N)cc3C(=O)O)n(C)c2c1
1 | Cl.Cn1c(C(=O)Nc2ccc(C#N)cc2C(=O)O)cc2cccc(OCC(O)CN3CCOCC3)c21 (centres unmarked)

MIC [µg/mL] | Compound
0.5 (≈ 1.12 µM) | CCCCCNC(=O)Nc1ccc2cc(C(=O)Nc3ccc(C#N)cc3C(=O)O)n(C)c2c1
2 (≈ 4.8 µM) | N#Cc1ccc(NC(=O)c2cc3cccc(NC(=O)C4CCCC4)c3[nH]2)c(C(=O)O)c1
0.125 (≈ 0.338 µM) | CCCC(C)Sc1ccc(C(=O)Nc2ccc(C#N)cc2C(=O)O)cn1 (centres unmarked)
16 (≈ 34.7 µM) | Cc1sc(C(=O)Nc2ccc(C#N)cc2C(=O)O)cc1S(=O)(=O)N1CC(C)CC(C)C1 (centres unmarked)
2 (≈ 4.65 µM) | N#Cc1ccc(NC(=O)c2cc3cccc(NC(=O)C4CCCCC4)c3[nH]2)c(C(=O)O)c1
0.125 (≈ 0.298 µM) | CCCC(C)Oc1ccccc1-c1cc(C(=O)Nc2ccc(C#N)cc2C(=O)O)no1 (centres unmarked)
1 (≈ 2.86 µM) | N#Cc1ccc(NC(=O)c2ncc(-c3ccccc3)s2)c(C(=O)O)c1
8 (≈ 14.6 µM) | Cc1sc(C(=O)Nc2ccc(Br)cc2C(=O)O)cc1S(=O)(=O)Nc1ccc(F)c(Cl)c1
1 (≈ 1.8 µM) | Cc1sc(C(=O)Nc2ccc(Br)cc2C(=O)O)cc1S(=O)(=O)N1CCc2ccc(Cl)cc21
2 (≈ 3.89 µM) | COc1ccc(OC)c(NC(=O)Nc2ccc3cc(C(=O)Nc4ccc(C#N)cc4C(=O)O)n(C)c3c2)c1
2 (≈ 4.51 µM) | Cc1cc(CC(=O)Nc2cccc3cc(C(=O)Nc4ccc(C#N)cc4C(=O)O)[nH]c23)on1
4 (≈ 9.88 µM) | O=C(O)c1cc(Cl)ccc1NC(=O)c1cc2ccccc2n1Cc1ccccc1
1 (≈ 2.23 µM) | N#Cc1cccc(C(=O)Nc2cccc3cc(C(=O)Nc4ccc(C#N)cc4C(=O)O)[nH]c23)c1
32 (≈ 81.1 µM) | N#Cc1ccc(NC(=O)c2cncc(-c3cccc4cccnc34)c2)c(C(=O)O)c1
8 (≈ 14.7 µM) | Cc1c(S(=O)(=O)N(C)c2ccc(Cl)cc2)csc1C(=O)Nc1ccc(Br)cc1C(=O)O
0.5 (≈ 0.981 µM) | Cc1nc(C)c(S(=O)(=O)Nc2cccc3cc(C(=O)Nc4ccc(C#N)cc4C(=O)O)n(C)c23)s1
0.5 (≈ 1.22 µM) | Cc1ccccc1-c1ccc2cc(C(=O)Nc3ccc(C#N)cc3C(=O)O)n(C)c2c1
0.5 (≈ 1.35 µM) | COC(=O)CSc1ccc(C(=O)Nc2ccc(C#N)cc2C(=O)O)cn1
0.25 | Cl.N#Cc1ccc(NC(=O)c2ccc(SCc3ccccc3)nc2)c(C(=O)O)c1
0.5 (≈ 1.05 µM) | N#Cc1ccc(NC(=O)c2noc3ccc(S(=O)(=O)N(CCO)CCO)cc23)c(C(=O)O)c1
1 (≈ 2.39 µM) | CCC(CC)C(=O)Nc1cccc2cc(C(=O)Nc3ccc(C#N)cc3C(=O)O)[nH]c12
1 (≈ 3.49 µM) | Cc1ccsc1C(=O)Nc1ccc(C#N)cc1C(=O)O
> 128 | N#Cc1ccc(NC(=O)c2cc(-c3ccccc3Oc3cccc(-c4ccccc4)c3)on2)c(C(=O)O)c1
0.5 (≈ 1.24 µM) | CCCCC(=O)Nc1cccc2cc(C(=O)Nc3ccc(C#N)cc3C(=O)O)[nH]c12

MIC [µg/mL] | Compound
0.25 (≈ 0.701 µM) | CC(C)CSc1cnc(C(=O)Nc2ccc(C#N)cc2C(=O)O)cn1
0.25 (≈ 0.506 µM) | N#Cc1ccc(NC(=O)c2cc3cccc(NC(=O)Cc4csc5ccccc45)c3[nH]2)c(C(=O)O)c1
1 (≈ 2.93 µM) | N#Cc1ccc(NC(=O)c2noc3cc(Cl)ccc23)c(C(=O)O)c1
0.5 (≈ 1.11 µM) | CC(=O)Nc1cccc(-c2cccc3cc(C(=O)Nc4ccc(C#N)cc4C(=O)O)n(C)c23)c1
4 (≈ 8.38 µM) | O=C(O)c1cc(Br)ccc1NC(=O)c1cc2ccccc2n1CCCc1ccccc1
16 (≈ 44.9 µM) | N#Cc1ccc(NC(=O)c2cc(CN3CCOCC3)on2)c(C(=O)O)c1
8 (≈ 22.3 µM) | N#Cc1ccc(NC(=O)c2cncc(Oc3ccccc3)c2)c(C(=O)O)c1
4 (≈ 10.9 µM) | N#Cc1ccc(NC(=O)c2cncc(C#Cc3ccccc3)c2)c(C(=O)O)c1
4 (≈ 10.3 µM) | O=C(Nc1ccc(Br)cc1C(=O)O)c1cnc(Cl)c(Cl)c1
128 (≈ 244 µM) | Nc1ccc(CCNS(=O)(=O)c2cc(C(=O)Nc3ccc(Br)cc3C(=O)O)cs2)cc1
2 (≈ 4.95 µM) | N#Cc1ccc(NC(=O)c2noc3ccc(NC(=O)C4CCC4)cc23)c(C(=O)O)c1
0.25 (≈ 0.52 µM) | N#Cc1ccc(NC(=O)c2cc3cccc(NC(=O)CCCCc4ccccc4)c3[nH]2)c(C(=O)O)c1
2 (≈ 5.76 µM) | CC(C)n1c(C(=O)Nc2ccc(C#N)cc2C(=O)O)cc2ccccc21
2 (≈ 5.11 µM) | CNC(=O)Nc1ccc2cc(C(=O)Nc3ccc(C#N)cc3C(=O)O)n(C)c2c1
8 (≈ 10.8 µM) | Cn1c(C(=O)Nc2ccc(C#N)cc2C(=O)O)cc2c(-c3ccccc3C(F)(F)F)cc(-c3ccccc3C(F)(F)F)c(NC(=O)Cc3ccccc3)c21
0.5 (≈ 1.22 µM) | Cc1noc(C)c1CSc1ccc(C(=O)Nc2ccc(C#N)cc2C(=O)O)cn1
8 (≈ 18.4 µM) | CCOc1nc(SCc2ccccc2)ncc1C(=O)Nc1ccc(C#N)cc1C(=O)O
1 (≈ 2.4 µM) | COCCOCCCSc1cnc(C(=O)Nc2ccc(C#N)cc2C(=O)O)cn1
0.5 (≈ 1.21 µM) | Cn1c(C(=O)Nc2ccc(C#N)cc2C(=O)O)cc2cccc(NS(C)(=O)=O)c21
1 (≈ 3.09 µM) | N#Cc1ccc(NC(=O)c2nsc3ccccc23)c(C(=O)O)c1
64 (≈ 186 µM) | N#Cc1ccc(NC(=O)c2cnc(-c3ccccc3)cn2)c(C(=O)O)c1
64 (≈ 152 µM) | N#Cc1ccc(NC(=O)c2ccc(S(=O)(=O)Cc3ccccc3)nc2)c(C(=O)O)c1
32 (≈ 52.9 µM) | Cc1sc(C(=O)Nc2ccc(C#N)cc2C(=O)O)cc1S(=O)(=O)N1CCC(O)(c2ccc(Br)cc2)CC1

— patent publication US20040110802A1, “Antibacterial benzoic acid derivatives” (priority 2002, published 2004)
